{"source": "ChEMBL document CHEMBL4673316", "about": "“Synthesis and evaluation of a UMI-77-based fluorescent probe for selective detecting Mcl-1 protein and imaging in living cancer cells” (Bioorg Med Chem, 2021)", "key": {"[1]": {"biological_target": "Apoptosis regulator Bcl-2 (Homo sapiens, UniProt P10415)", "sequence (P10415 whole entry)": "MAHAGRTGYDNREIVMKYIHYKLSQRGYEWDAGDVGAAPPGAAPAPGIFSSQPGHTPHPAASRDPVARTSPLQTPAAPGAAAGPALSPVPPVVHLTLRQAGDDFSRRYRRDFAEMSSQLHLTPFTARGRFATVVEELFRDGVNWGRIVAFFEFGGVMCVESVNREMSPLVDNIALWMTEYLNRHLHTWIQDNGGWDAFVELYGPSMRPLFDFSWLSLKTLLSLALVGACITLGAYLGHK", "experiment": "Inhibition of Bcl2 (unknown origin) using 5-FAM-Bid-BH3 as substrate incubated for 30 mins followed by substrate addition and measured after 20 mins by fluorescence polarization assay"}, "[2]": {"biological_target": "T1, Induced myeloid leukemia cell differentiation protein Mcl-1 (Homo sapiens, UniProt Q07820)", "T1 sequence (Q07820 whole entry)": "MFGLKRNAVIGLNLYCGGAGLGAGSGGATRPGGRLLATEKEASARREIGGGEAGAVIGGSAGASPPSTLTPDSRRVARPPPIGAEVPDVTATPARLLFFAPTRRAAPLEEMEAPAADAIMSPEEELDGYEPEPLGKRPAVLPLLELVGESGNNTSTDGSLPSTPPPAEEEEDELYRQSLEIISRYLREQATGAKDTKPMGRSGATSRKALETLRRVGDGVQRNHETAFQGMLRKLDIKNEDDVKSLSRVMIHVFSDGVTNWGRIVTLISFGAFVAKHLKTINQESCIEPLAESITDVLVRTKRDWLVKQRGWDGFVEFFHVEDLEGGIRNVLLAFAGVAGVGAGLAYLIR", "experiment": "Inhibition of Mcl-1 (unknown origin) using 5-FAM-Bid-BH3 as substrate incubated for 30 mins followed by substrate addition and measured after 20 mins by fluorescence polarization assay"}, "[3]": {"experiment": "Drug localization in mitochondria of human PC-3 cells at 5 uM incubated for 30 mins by MitoTracker Red CMXRos dye and Hoechst 33342 nuclear dye based fluorescence microscopic analysis", "type": "ADME", "settings": "pc-3, 0.5 h"}, "[4]": {"biological_target": "T1, Induced myeloid leukemia cell differentiation protein Mcl-1", "experiment": "Binding affinity to Mcl1 in human PC-3 cells at 5 uM incubated for 30 mins in presence of UMI-77 by flow cytometry analysis", "type": "cell-based"}, "[5]": {"biological_target": "T1, Induced myeloid leukemia cell differentiation protein Mcl-1", "experiment": "Binding affinity to Mcl1 in human PC-3 cells at 5 uM incubated for 30 mins in presence of UMI-77 by fluorescence microscopy analysis", "type": "cell-based"}, "[6]": {"biological_target": "T1, Induced myeloid leukemia cell differentiation protein Mcl-1", "experiment": "Binding affinity to Mcl1 in HUVEC cells at 5 uM incubated for 30 mins by fluorescence microscopy analysis", "type": "cell-based"}, "[7]": {"biological_target": "T1, Induced myeloid leukemia cell differentiation protein Mcl-1", "experiment": "Binding affinity to Mcl1 in human PC-3 cells at 5 uM incubated for 30 mins by fluorescence microscopy analysis", "type": "cell-based"}, "HUVEC": {"test_system": "HUVEC", "experiment": "Cytotoxicity against HUVEC cells assessed as reduction in cell viability at 5 to 50 uM incubated for 1 hr by CCK8 assay", "type": "cell-based", "settings": "human, dose 5-50 µM"}, "PC-3": {"test_system": "PC-3", "experiment": "Cytotoxicity against human PC-3 cells assessed as reduction in cell viability at 5 to 50 uM incubated for 1 hr by CCK8 assay", "type": "cell-based", "settings": "pc-3, 1 h, dose 5-50 µM"}, "Homo sapiens [8]": {"species": "Homo sapiens", "experiment": "Selectivity index, ratio of binding for BSA (unknown origin) to binding for Mcl-1 (unknown origin)"}, "Homo sapiens [9]": {"species": "Homo sapiens", "experiment": "Selectivity index, ratio of Ki for Bcl-2 (unknown origin) to Ki for Mcl-1 (unknown origin)", "settings": "dose 5.0 µM, time 20.0 min"}, "[10]": {"biological_target": "T1, Induced myeloid leukemia cell differentiation protein Mcl-1", "experiment": "Binding affinity to Mcl1 (unknown origin) at 5 uM incubated for 20 mins in presence of 5 to 100 uM UMI-77 by fluorescence based assay"}, "[11]": {"biological_target": "T1, Induced myeloid leukemia cell differentiation protein Mcl-1", "experiment": "Binding affinity to Mcl1 (unknown origin) at 5 uM incubated for 20 mins by fluorescence based assay relative to control"}, "[12]": {"biological_target": "T1, Induced myeloid leukemia cell differentiation protein Mcl-1", "experiment": "Binding affinity to Mcl1 (unknown origin) at 5 uM incubated for 20 mins by fluorescence based assay (reference value: 0.66 %)"}, "[13]": {"biological_target": "T1, Induced myeloid leukemia cell differentiation protein Mcl-1", "experiment": "Binding affinity to Mcl1 (unknown origin) at 5 uM incubated for 20 mins by fluorescence based assay"}, "[14]": {"experiment": "Effect on human PC-3 cells with knocked out Mcl1 gene at 5 uM incubated for 30 mins by fluorescence microscopic analysis", "type": "ADME, cell-based", "settings": "pc-3, 0.5 h"}, "[15]": {"biological_target": "T1, Induced myeloid leukemia cell differentiation protein Mcl-1", "experiment": "Binding affinity to Mcl1 in human PC-3 cells at 5 uM incubated for 30 mins by flow cytometry analysis", "type": "cell-based"}}, "note": "Activity calls are given as the source filed them. The calls are words filed in the database; no cut-off is given here.", "data": [{"compound": "O=C(O)CSc1cc(NS(=O)(=O)c2ccc(Br)cc2)c2ccccc2c1O", "values": [{"measurement": "Ki", "setting": "[1]", "value": 11, "unit": "µM"}, {"measurement": "Ki", "setting": "[2]", "value": 0.21, "unit": "µM"}]}, {"compound": "CN(C)c1cccc2c(S(=O)(=O)Nc3cc(SCC(=O)O)c(O)c4ccccc34)cccc12", "values": [{"measurement": "Drug uptake", "setting": "[3]", "value": "Active"}, {"measurement": "Activity", "setting": "[4]", "value": "inactive"}, {"measurement": "Activity", "setting": "[5]", "value": "inactive"}, {"measurement": "Activity", "setting": "[6]", "value": "inactive"}, {"measurement": "Activity", "setting": "[7]", "value": "Active"}, {"measurement": "Activity", "setting": "HUVEC", "value": "Non-Toxic"}, {"measurement": "Activity", "setting": "PC-3", "value": "Non-Toxic"}, {"measurement": "Ratio", "setting": "Homo sapiens [8]", "value": 2}, {"measurement": "Ratio Ki", "setting": "Homo sapiens [9]", "value": 5}, {"measurement": "Activity", "setting": "[10]", "value": "inactive"}, {"measurement": "fold change (FC)", "setting": "[11]", "value": 5}, {"measurement": "Activity", "setting": "[12]", "value": 6.47, "unit": "%"}, {"measurement": "Activity", "setting": "[13]", "value": "Active"}, {"measurement": "Ki", "setting": "[1]", "value": 2.2, "unit": "µM"}, {"measurement": "Ki", "setting": "[2]", "value": 0.12, "unit": "µM"}, {"measurement": "Activity", "setting": "[14]", "value": "Non-Toxic"}, {"measurement": "Activity", "setting": "[15]", "value": "Active"}]}]}
